Test results from patent publication US20250145599A1, “CERTAIN CHEMICAL ENTITIES, COMPOSITIONS, AND METHODS” (Retune Pharma Inc., priority 2022, published 2025).

These compounds were tested against IGF-1R (Homo sapiens, UniProt P08069) (assay: IGF-1R biochemical assay (ADP-Glo)). Conditions: read-out: IGF1R IC50.
Experimental: The inhibitory activity against IGF-1R was measured using ADP-Glo assay. The percent (%) inhibition at each concentration of compound is calculated based on and relative to the luminescence signal in the Max and Min control wells contained within each assay plate. The Max control wells contain enzyme and substrate as 0% inhibition, and the Min control wells only contain substrate without enzyme as 100% inhibition. The concentrations and % inhibition values for tested compounds are plotted and the concentration of compound required for 50% inhibition (IC50) is determined with a four-parameter logistic dose response equation.
Table 3 provides IC50 data of representative compounds against IGF-1R using ADP-Glo assay. The IC50 data are designated within the following ranges: A: ≤0.10 μM, B: >0.10 μM to ≤1 μM, C: >1 μM to ≤20 μM

Chain of IGF-1R (P08069 31-1367): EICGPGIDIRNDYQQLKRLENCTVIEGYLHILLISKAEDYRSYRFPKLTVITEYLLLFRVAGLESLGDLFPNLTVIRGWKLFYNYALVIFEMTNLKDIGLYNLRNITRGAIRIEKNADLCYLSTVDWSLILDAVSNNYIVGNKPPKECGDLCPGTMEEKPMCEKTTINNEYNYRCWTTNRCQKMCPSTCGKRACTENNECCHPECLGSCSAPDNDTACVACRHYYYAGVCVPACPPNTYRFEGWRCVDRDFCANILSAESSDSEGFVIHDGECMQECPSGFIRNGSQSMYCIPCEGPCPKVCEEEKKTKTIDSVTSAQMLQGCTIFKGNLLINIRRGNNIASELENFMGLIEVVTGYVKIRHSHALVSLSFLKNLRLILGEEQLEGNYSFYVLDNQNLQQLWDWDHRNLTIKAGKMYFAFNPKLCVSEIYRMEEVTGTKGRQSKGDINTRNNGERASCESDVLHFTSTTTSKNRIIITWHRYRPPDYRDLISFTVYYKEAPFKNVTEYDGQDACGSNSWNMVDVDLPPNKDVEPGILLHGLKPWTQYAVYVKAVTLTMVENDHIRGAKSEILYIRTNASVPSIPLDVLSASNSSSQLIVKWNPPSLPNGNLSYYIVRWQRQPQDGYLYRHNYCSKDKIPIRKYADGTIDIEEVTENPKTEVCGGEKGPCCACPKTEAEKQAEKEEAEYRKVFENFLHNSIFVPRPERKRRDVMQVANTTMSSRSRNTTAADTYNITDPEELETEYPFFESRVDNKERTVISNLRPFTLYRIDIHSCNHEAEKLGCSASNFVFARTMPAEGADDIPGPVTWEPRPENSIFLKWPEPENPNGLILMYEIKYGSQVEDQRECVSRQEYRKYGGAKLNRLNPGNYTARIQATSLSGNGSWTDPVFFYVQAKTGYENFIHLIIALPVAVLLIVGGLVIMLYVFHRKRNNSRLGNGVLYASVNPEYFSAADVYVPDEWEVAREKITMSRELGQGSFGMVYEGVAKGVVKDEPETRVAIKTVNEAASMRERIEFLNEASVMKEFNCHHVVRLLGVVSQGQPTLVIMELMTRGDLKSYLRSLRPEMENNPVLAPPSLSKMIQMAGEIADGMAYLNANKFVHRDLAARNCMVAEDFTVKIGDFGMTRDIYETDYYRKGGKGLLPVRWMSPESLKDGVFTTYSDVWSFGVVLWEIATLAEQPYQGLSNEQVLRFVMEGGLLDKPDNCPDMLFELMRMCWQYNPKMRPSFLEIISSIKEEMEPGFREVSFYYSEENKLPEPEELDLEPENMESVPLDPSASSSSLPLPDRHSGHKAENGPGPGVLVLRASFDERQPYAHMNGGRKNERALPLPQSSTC

Q: With `CCOc1cc(-c2ccccc2)nc2cc(-c3nn(C4CC(=O)C4)c(N)c3C(N)=O)ccc12` [Example C043, 5-amino-3-(4-ethoxy-2-phenylquinolin-7-yl)-1-(3-oxocyclobutyl)-1H-pyrazole-4-carboxamide] as the compound, how does the IC50 read?
A: ≤ 100 nM

Q: With `NC(=O)c1c(-c2ccc3ccc(-c4ccccc4)nc3c2)nn(C2CC(N3CCC3)C2)c1N` (stereo not shown) [Example C027, 5-amino-1-(3-(azetidin-1-yl)cyclobutyl)-3-(2-phenylquinolin-7-yl)-1H-pyrazole-4-carboxamide] as the compound, how does the IC50 read?
A: 100 to 1000 nM

Q: With `NC(=O)c1c(-c2ccc3ccc(-c4ccccc4)nc3c2)nn2c1NCC(C(N)=O)C2` (stereo not shown) [Example C031] as the compound, how does the IC50 read?
A: 1000 to 20000 nM

Q: For `NC(=O)c1c(-c2ccc3ccc(-c4ccccc4)nc3c2)nn([C@H]2C[C@@H](C(=O)O)C2)c1N` [Example C017, (1s,3s)-3-(5-amino-4-carbamoyl-3-(2-phenylquinolin-7-yl)-1H-pyrazol-1-yl)cyclobutane-1-carboxylic acid], which IC50 is on record?
A: 1000 to 20000 nM

Q: For `COc1cc(-c2ccccc2)nc2cc(-c3nn([C@H]4C[C@@](C)(O)C4)c(N)c3C(N)=O)cc(F)c12` [Example C055, 5-amino-3-(5-fluoro-4-methoxy-2-phenylquinolin-7-yl)-1-((1s,3s)-3-hydroxy-3-methylcyclobutyl)-1H-pyrazole-4-carboxamide], which IC50 is on record?
A: 100 to 1000 nM

Q: For `NC(=O)c1c(-c2ccc3ccc(-c4ccccc4)nc3c2)nn(C2CC(N3CCOCC3)C2)c1N` (stereo not shown) [Example C023, 5-amino-1-(3-morpholinocyclobutyl)-3-(2-phenylquinolin-7-yl)-1H-pyrazole-4-carboxamide], which IC50 is on record?
A: ≤ 100 nM

Q: Which IC50 does the source give for `CN1CCN(C[C@H]2C[C@H](n3nc(-c4ccc5ccc(-c6ccccc6)nc5c4)c(C(N)=O)c3N)C2)CC1` [Example C021, 5-amino-1-((1r,3r)-3-((4-methylpiperazin-1-yl)methyl)cyclobutyl)-3-(2-phenylquinolin-7-yl)-1H-pyrazole-4-carboxamide] here?
A: ≤ 100 nM

Q: With `NC(=O)c1c(-c2ccc3ccc(-c4ccccc4)nc3c2)nn([C@H]2C[C@H](CN3CCNCC3)C2)c1N` [Example C016, 5-amino-3-(2-phenylquinolin-7-yl)-1-((1r,3r)-3-(piperazin-1-ylmethyl)cyclobutyl)-1H-pyrazole-4-carboxamide] as the compound, how does the IC50 read?
A: ≤ 100 nM

Q: For `C[C@]1(O)C[C@@H](n2nc(-c3ccc4ccc(-c5cccc(F)c5)nc4c3)c(C(N)=O)c2N)C1` [Example C041, 5-amino-3-(2-(3-fluorophenyl)quinolin-7-yl)-1-((1s,3s)-3-hydroxy-3-methylcyclobutyl)-1H-pyrazole-4-carboxamide], which IC50 is on record?
A: ≤ 100 nM

Q: `C[C@]1(O)C[C@H](n2nc(-c3ccc4ccc(-c5ccccc5F)nc4c3)c(C(N)=O)c2N)C1` [Example C040, 5-amino-3-(2-(2-fluorophenyl)quinolin-7-yl)-1-((1r,3r)-3-hydroxy-3-methylcyclobutyl)-1H-pyrazole-4-carboxamide] was tested. Which IC50 did it give?
A: ≤ 100 nM

Q: `C[C@]1(O)C[C@@H](n2nc(-c3ccc4ccc(-c5ccccc5F)nc4c3)c(C(N)=O)c2N)C1` [Example C037, 5-amino-3-(2-(2-fluorophenyl)quinolin-7-yl)-1-((1s,3s)-3-hydroxy-3-methylcyclobutyl)-1H-pyrazole-4-carboxamide] was tested. Which IC50 did it give?
A: ≤ 100 nM

Q: `NC(=O)c1c(-c2ccc3ccc(-c4ccccc4)nc3c2)nn(C2CCN(CCO)CC2)c1N` [Example C008, 5-amino-1-(1-(2-hydroxyethyl)piperidin-4-yl)-3-(2-phenylquinolin-7-yl)-1H-pyrazole-4-carboxamide] was tested. Which IC50 did it give?
A: 100 to 1000 nM

Q: Which IC50 does the source give for `CN1CCN(C2CC(n3nc(-c4ccc5ccc(-c6ccccc6)nc5c4)c(C(N)=O)c3N)C2)CC1` (stereo not shown) [Example C026, 5-amino-1-(3-(4-methylpiperazin-1-yl)cyclobutyl)-3-(2-phenylquinolin-7-yl)-1H-pyrazole-4-carboxamide] here?
A: ≤ 100 nM

Q: Which IC50 does the source give for `COC(=O)N1CCC(n2nc(-c3ccc4ccc(-c5ccccc5)nc4c3)c(C(N)=O)c2N)CC1` [Example C004, methyl 4-(5-amino-4-carbamoyl-3-(2-phenylquinolin-7-yl)-1H-pyrazol-1-yl)piperidine-1-carboxylate] here?
A: 1000 to 20000 nM

Q: With `CN1CCN(C[C@H]2C[C@@H](n3nc(-c4ccc5ccc(-c6ccccc6)nc5c4)c(C(N)=O)c3N)C2)CC1` [Example C019, 5-amino-1-((1s,3s)-3-((4-methylpiperazin-1-yl)methyl)cyclobutyl)-3-(2-phenylquinolin-7-yl)-1H-pyrazole-4-carboxamide] as the compound, how does the IC50 read?
A: 100 to 1000 nM

Q: For `NC(=O)c1c(-c2ccc3ccc(-c4ccccc4)nc3c2)nn(C2CCNCC2)c1N` [Example C002, 5-amino-3-(2-phenylquinolin-7-yl)-1-(piperidin-4-yl)-1H-pyrazole-4-carboxamide], which IC50 is on record?
A: 100 to 1000 nM

Q: `C[C@]1(O)C[C@@H](n2nc(-c3ccc4cnc(-c5ccccc5)nc4c3)c(C(N)=O)c2N)C1` [Example C054, 5-amino-1-((1s,3s)-3-hydroxy-3-methylcyclobutyl)-3-(2-phenylquinazolin-7-yl)-1H-pyrazole-4-carboxamide] was tested. Which IC50 did it give?
A: 1000 to 20000 nM

Q: With `NC(=O)c1c(-c2ccc3ccc(-c4ccccc4)nc3c2)nn(C2CC(N3CCNCC3)C2)c1N` (stereo not shown) [Example C025, 5-amino-3-(2-phenylquinolin-7-yl)-1-(3-(piperazin-1-yl)cyclobutyl)-1H-pyrazole-4-carboxamide] as the compound, how does the IC50 read?
A: ≤ 100 nM

Q: How did the IC50 turn out when `NC(=O)c1c(-c2ccc3ccc(-c4ccccc4)nc3c2)nn([C@H]2C[C@@H](O)C2)c1N` [Example C009, 5-amino-1-((1s,3s)-3-hydroxycyclobutyl)-3-(2-phenylquinolin-7-yl)-1H-pyrazole-4-carboxamide] was run?
A: 1000 to 20000 nM

Q: `CC(C)n1nc(-c2ccc3ccc(-c4ccccc4)nc3c2)c(C(N)=O)c1N` [Example C024, 5-amino-1-isopropyl-3-(2-phenylquinolin-7-yl)-1H-pyrazole-4-carboxamide] was tested. Which IC50 did it give?
A: 100 to 1000 nM

Q: `COc1nc(-c2ccccc2)nc2cc(-c3nn([C@H]4C[C@@](C)(O)C4)c(N)c3C(N)=O)ccc12` [Example C064, 5-amino-1-((1s,3s)-3-hydroxy-3-methylcyclobutyl)-3-(4-methoxy-2-phenylquinazolin-7-yl)-1H-pyrazole-4-carboxamide] was tested. Which IC50 did it give?
A: 100 to 1000 nM

Q: For `NC(=O)c1c(-c2ccc3ccc(-c4ccccc4)nc3c2)nn([C@H]2C[C@H](CN3CCC3)C2)c1N` [Example C014, 5-amino-1-((1r,3r)-3-(azetidin-1-ylmethyl)cyclobutyl)-3-(2-phenylquinolin-7-yl)-1H-pyrazole-4-carboxamide], which IC50 is on record?
A: ≤ 100 nM

Q: `C[C@]1(C(=O)O)C[C@H](n2nc(-c3ccc4ccc(-c5ccccc5)nc4c3)c(C(N)=O)c2N)C1` [Example C022, (1r,3r)-3-(5-amino-4-carbamoyl-3-(2-phenylquinolin-7-yl)-1H-pyrazol-1-yl)-1-methylcyclobutane-1-carboxylic acid] was tested. Which IC50 did it give?
A: 1000 to 20000 nM

Q: With `COc1cc(-c2cccc(F)c2)nc2cc(-c3nn([C@H]4C[C@](C)(O)C4)c(N)c3C(N)=O)ccc12` [Example C049, 5-amino-3-(2-(3-fluorophenyl)-4-methoxyquinolin-7-yl)-1-((1r,3r)-3-hydroxy-3-methylcyclobutyl)-1H-pyrazole-4-carboxamide] as the compound, how does the IC50 read?
A: ≤ 100 nM

Q: `C[C@]1(O)C[C@@H](n2nc(-c3ccc4ccc(-c5ccccc5Br)nc4c3)c(C(N)=O)c2N)C1` [Example C038, 5-amino-3-(2-(2-bromophenyl)quinolin-7-yl)-1-((ls,3s)-3-hydroxy-3-methylcyclobutyl)-1H-pyrazole-4-carboxamide] was tested. Which IC50 did it give?
A: ≤ 100 nM
